Assay results from patent publication US9051250B2, “Polymorphs of N-malonyl-bis(N′-methyl-N′-thiobenzoylhydrazide)” (Synta Pharmaceuticals Corp., priority 2007, dated 2015).

Assays:
[1] = Stability study (appearance, HPLC, IR) in stability chambers; assay type: physicochemical; conditions: for % compd 1 / % compd 2: HPLC
Protocol: 100 mg±2% of compound 1 was weighed into each 20 mL scintillation vial. The vials were capped with appropriate caps and sealed with Parafilm to prevent moisture entrapment. Stability for the test compounds synthesized from different log was tested. Twelve vials for each lot were prepared and distributed into respective stability chambers to initiate their stability study according to the following protocol.
Stability of the test compound was determined by its appearance and by analytical methods such as HPLC and IR. The IR test was performed for all time points under the two conditions listed above using material in one vial.
Compound 1 contains trace amount of compound 2 shown below. The amounts of compound 1 and 2 present at each time point were analyzed by HPLC.

[2] = Reconstitution test in 50:50 Cremophor EL/Ethanol; assay type: physicochemical; conditions: 500 micron sieve-cut; 266 mg in 16.7 ml 50:50 Cremophor EL/Ethanol
Protocol: As used herein, the reconstitution time is measured in 50:50 Cremophor EL/ethanol solution at ambient temperature (e.g., 18-25° C.) The reconstitution time can be measure according to the procedure described in Example 7. For example, the reconstitution time is measured by dissolving 266 mg of compound 1 in 16.7 mL of 50:50 Cremophor EL/ethanol solution with manual shaking or mechanical shaking at a speed of 232-236 rpm.
50:50 Cremophor EL/Ethanol was prepared and filtered through a 0.45 μm filter and used for testing. 266 mg of compound 1 was weighed into a 50 mL glass vial with a rubber stopper. 16.7 ml of filtered 50:50 Cremophor EL/Ethanol solution was taken by a syringe and needle and added into the vial. The vial was shaken either manually, or on a mechanical shaker at a speed of 232-236 rpm. The reconstitution time was determined with three vials. At different time points, vials were subject to visual observation.

Sieve-cut test = assay type: physicochemical; conditions: 300 micron screen
Protocol: […] 5 g to 20 g samples were used, depending on the batch size. The mass and percentage of material collected in the receiver were measured.

[3] = system: stage IV metastatic melanoma; conditions: in combination with taxol, relative to patients treated with paclitaxel alone; cited from earlier work

SMILES: CN(NC(=O)CC(=O)NN(C)C(=S)c1ccccc1)C(=S)c1ccccc1 [Lot #1, N-malonyl-bis(N′-methyl-N′-thiobenzoylhydrazide)]
- Appearance ([1]; 25° C./60% RH, 0 months): Pale-yellow
- FT-IR ([1]; 25° C./60% RH, 0 months): Form D
- Appearance ([1]; 25° C./60% RH, 1 month): Pale-yellow
- FT-IR ([1]; 25° C./60% RH, 1 month): Form D
- Appearance ([1]; 25° C./60% RH, 3 months): Pale-yellow
- FT-IR ([1]; 25° C./60% RH, 3 months): Form D
- Appearance ([1]; 25° C./60% RH, 6 months): Pale yellow
- FT-IR ([1]; 25° C./60% RH, 6 months): Form D
- Appearance ([1]; 25° C./60% RH, 9 months): Pale yellow
- FT-IR ([1]; 25° C./60% RH, 9 months): Form D
- Appearance ([1]; 25° C./60% RH, 12 months): Pale yellow
- FT-IR ([1]; 25° C./60% RH, 12 months): Form D
- Appearance ([1]; 40° C./75% RH, 0 months): Pale-
- FT-IR ([1]; 40° C./75% RH, 0 months): Form D
- Appearance ([1]; 40° C./75% RH, 0.5 months): Pale-yellow
- FT-IR ([1]; 40° C./75% RH, 0.5 months): Form D
- Appearance ([1]; 40° C./75% RH, 1 month): Pale-
- FT-IR ([1]; 40° C./75% RH, 1 month): Form D
- Appearance ([1]; 40° C./75% RH, 3 months): Pale-yellow
- FT-IR ([1]; 40° C./75% RH, 3 months): Form D
- Appearance ([1]; 40° C./75% RH, 6 months): Pale-
- FT-IR ([1]; 40° C./75% RH, 6 months): Form D
- % compd 1 ([1]; 25° C./60% RH, 0 months): 99.0%
- % compd 2 ([1]; 25° C./60% RH, 0 months): 1.30%
- % compd 1 ([1]; 25° C./60% RH, 1 month): 98.8%
- % compd 2 ([1]; 25° C./60% RH, 1 month): 1.28%
- % compd 1 ([1]; 25° C./60% RH, 3 months): 99.0%
- % compd 2 ([1]; 25° C./60% RH, 3 months): 1.31%
- % compd 1 ([1]; 25° C./60% RH, 6 months): 99.0%
- % compd 2 ([1]; 25° C./60% RH, 6 months): 1.28%
- % compd 1 ([1]; 25° C./60% RH, 9 months): 97.5%
- % compd 2 ([1]; 25° C./60% RH, 9 months): 1.38%
- % compd 1 ([1]; 25° C./60% RH, 12 months): 98.0%
- % compd 2 ([1]; 25° C./60% RH, 12 months): 1.33%
- % compd 1 ([1]; 40° C./75% RH, 0 months): 99.0%
- % compd 2 ([1]; 40° C./75% RH, 0 months): 1.30%
- % compd 1 ([1]; 40° C./75% RH, 0.5 months): 99.7%
- % compd 2 ([1]; 40° C./75% RH, 0.5 months): 1.28%
- % compd 1 ([1]; 40° C./75% RH, 1 month): 95.8%
- % compd 2 ([1]; 40° C./75% RH, 1 month): 1.28%
- % compd 1 ([1]; 40° C./75% RH, 3 months): 98.9%
- % compd 2 ([1]; 40° C./75% RH, 3 months): 1.33%
- % compd 1 ([1]; 40° C./75% RH, 6 months): 98.4%
- % compd 2 ([1]; 40° C./75% RH, 6 months): 1.31%

SMILES: CN(NC(=O)CC(=O)NN(C)C(=S)c1ccccc1)C(=S)c1ccccc1 [Lot #2, N-malonyl-bis(N′-methyl-N′-thiobenzoylhydrazide)]
- Appearance ([1]; 25° C./60% RH, 0 months): Pale-yellow
- FT-IR ([1]; 25° C./60% RH, 0 months): Form D
- Appearance ([1]; 25° C./60% RH, 1 month): Pale-yellow
- FT-IR ([1]; 25° C./60% RH, 1 month): Form D
- Appearance ([1]; 25° C./60% RH, 3 months): Pale-yellow
- FT-IR ([1]; 25° C./60% RH, 3 months): Form D
- Appearance ([1]; 25° C./60% RH, 6 months): Pale-yellow
- FT-IR ([1]; 25° C./60% RH, 6 months): Form D
- Appearance ([1]; 25° C./60% RH, 9 months): Pale-yellow
- FT-IR ([1]; 25° C./60% RH, 9 months): Form D
- Appearance ([1]; 25° C./60% RH, 12 months): Pale-yellow
- FT-IR ([1]; 25° C./60% RH, 12 months): Form D
- Appearance ([1]; 40° C./75% RH, 0 months): Pale-
- FT-IR ([1]; 40° C./75% RH, 0 months): Form D
- Appearance ([1]; 40° C./75% RH, 0.5 months): Pale-yellow
- FT-IR ([1]; 40° C./75% RH, 0.5 months): Form D
- Appearance ([1]; 40° C./75% RH, 1 month): Pale-
- FT-IR ([1]; 40° C./75% RH, 1 month): Form D
- Appearance ([1]; 40° C./75% RH, 3 months): Pale-yellow
- FT-IR ([1]; 40° C./75% RH, 3 months): Form D
- Appearance ([1]; 40° C./75% RH, 6 months): Pale-
- FT-IR ([1]; 40° C./75% RH, 6 months): Form D
- % compd 1 ([1]; 25° C./60% RH, 0 months): 99.7%
- % compd 2 ([1]; 25° C./60% RH, 0 months): 0.15%
- % compd 1 ([1]; 25° C./60% RH, 1 month): 98.6%
- % compd 2 ([1]; 25° C./60% RH, 1 month): 0.14%
- % compd 1 ([1]; 25° C./60% RH, 3 months): 100.2%
- % compd 2 ([1]; 25° C./60% RH, 3 months): 0.15%
- % compd 1 ([1]; 25° C./60% RH, 6 months): 99.6%
- % compd 2 ([1]; 25° C./60% RH, 6 months): 0.13%
- % compd 1 ([1]; 25° C./60% RH, 9 months): 98.9%
- % compd 2 ([1]; 25° C./60% RH, 9 months): 0.13%
- % compd 1 ([1]; 25° C./60% RH, 12 months): 99.7%
- % compd 2 ([1]; 25° C./60% RH, 12 months): 0.13%
- % compd 1 ([1]; 40° C./75% RH, 0 months): 99.7%
- % compd 2 ([1]; 40° C./75% RH, 0 months): 0.15%
- % compd 1 ([1]; 40° C./75% RH, 0.5 months): 99.6%
- % compd 2 ([1]; 40° C./75% RH, 0.5 months): 0.14%
- % compd 1 ([1]; 40° C./75% RH, 1 month): 100.3%
- % compd 2 ([1]; 40° C./75% RH, 1 month): 0.16%
- % compd 1 ([1]; 40° C./75% RH, 3 months): 100.2%
- % compd 2 ([1]; 40° C./75% RH, 3 months): 0.19%
- % compd 1 ([1]; 40° C./75% RH, 6 months): 101.7%
- % compd 2 ([1]; 40° C./75% RH, 6 months): 0.18%

SMILES: CN(NC(=O)CC(=O)NN(C)C(=S)c1ccccc1)C(=S)c1ccccc1 [compound 1, N-malonyl-bis(N′-methyl-N′-thiobenzoylhydrazide)]
- Re-constitution time (min) for specific sieve-cut [2]: >>25, 500 micron min
- % by weight that passed through a specific size screen, % (Sieve-cut test): Does not pass
- time to progression [3]: increase the time to progression

SMILES: CN(NC(=O)CC(=O)NN(C)C(=S)c1ccccc1)C(=S)c1ccccc1 [compound 2]
- Re-constitution time (min) for specific sieve-cut [2]: >>25, 500 micron min
- % by weight that passed through a specific size screen, % (Sieve-cut test): Does not pass
